PubChem BioAssay (NCI)
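Five compound concentrations were applied to cells in 96-well plates for 48 hours; endpoints were derived by simple linear interpolation of the resulting dose-response curve. GI50 = concentration required for 50% inhibition of growth. Definition used: TGI = concentration required for complete inhibition of growth.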

Legend:
Test in all cases: NCI tumour cell line growth inhibition, 48 h
A498 renal = test system: A498 renal
HCT-116 colon = test system: HCT-116 colon
HCT-15 colon = test system: HCT-15 colon
HL-60(TB) leukemia = test system: HL-60(TB) leukemia
HOP-92 NSCLC = test system: HOP-92 NSCLC
K-562 leukemia = test system: K-562 leukemia
LOX IMVI melanoma = test system: LOX IMVI melanoma
OVCAR-4 ovarian = test system: OVCAR-4 ovarian
RXF 393 renal = test system: RXF 393 renal
SF-295 CNS = test system: SF-295 CNS

Row | SMILES | GI50 (A498 renal) [µM] | TGI (A498 renal) [µM] | GI50 (HCT-116 colon) [µM] | TGI (HCT-116 colon) [µM] | GI50 (HCT-15 colon) [µM] | TGI (HCT-15 colon) [µM] | GI50 (HL-60(TB) leukemia) [µM] | TGI (HL-60(TB) leukemia) [µM] | GI50 (HOP-92 NSCLC) [µM] | TGI (HOP-92 NSCLC) [µM] | GI50 (K-562 leukemia) [µM] | TGI (K-562 leukemia) [µM] | GI50 (LOX IMVI melanoma) [µM] | TGI (LOX IMVI melanoma) [µM] | GI50 (OVCAR-4 ovarian) [µM] | TGI (OVCAR-4 ovarian) [µM] | GI50 (RXF 393 renal) [µM] | TGI (RXF 393 renal) [µM] | GI50 (SF-295 CNS) [µM] | TGI (SF-295 CNS) [µM]
1 | N#Cc1cccc(C2C3=C(COC3=O)N(CCO)c3cc4c(cc32)CCC4)c1 (centres undefined) | 0.0411 | 0.303 | 0.143 | 13.3 | 0.127 | > 50 | 0.132 | 0.383 | 0.871 | 35.3 | 0.0732 | > 50 | 0.292 | > 44.9 | 0.374 | > 50 | 0.119 | > 50 | 0.0716 | > 50
2 | Cc1n(Cc2ccc3ccccc3n2)cc[n+]1Cc1ccc2ccccc2c1 | 1.84 | 10.2 | 0.61 | 10.4 | 20.4 | > 75.9 | 0.344 | 1.46 | 0.355 | 3.06 | 0.422 | 12.9 | 1.05 | 3.77 | 0.342 | 11.3 | 3.59 | 17.4 | 1.47 | 7.62
3 | Cc1ccc(-c2nc(C(Cl)Cl)nc3cc(C)nn23)cc1 | 1.75 | 4.7 | 2.09 | > 100 | 1.24 | 4.61 | 1.33 | 5.46 | 1.95 | 7.64 | 2.3 | > 100 | 4.01 | > 100 | 1.07 | 3.87 | 0.673 | 2.36 | 2.1 | 6.71
4 | C=CC(C)(O)CCC1C(=C)C(O)CC2C(C)(C)CCCC12C (centres undefined) | – | 33.3 | – | 31.8 | – | 33.3 | – | 35.9 | – | 34 | – | 33.2 | – | 38.7 | – | 47.5 | – | 29.5 | – | 48
5 | Cc1ccc(NC2=CC(=O)C(=O)c3ccccc32)c(C)c1 | 4.69 | 17.8 | 1.66 | 4.23 | 2.74 | 17.1 | 2.59 | 8.06 | 13.3 | 42.3 | 4.03 | 29.4 | 1.28 | 4.46 | 2.53 | 12.2 | 9.59 | 21.6 | 1.68 | 3.37
6 | CC(C)C/C(=N\NC(=O)c1ccncc1)c1cc(Cl)ccc1O | 2.12 | 45.7 | 0.244 | 11 | 0.0938 | 98.9 | 0.295 | 2.26 | 0.306 | 28.6 | 0.516 | > 100 | 0.178 | – | 0.26 | > 32.4 | 2.37 | > 41 | 0.256 | 13.2
7 | Nc1nc(-c2ccccc2)cc(-c2cc(Cl)ccc2O)n1 | – | > 100 | – | > 100 | – | > 100 | – | > 100 | – | > 100 | – | > 100 | – | > 100 | – | > 100 | – | > 100 | – | > 100
8 | O=S(=O)(Cc1ccccc1)SCc1ccccc1 | – | 73.6 | – | 35.4 | – | 40.2 | – | 21.5 | – | 51.2 | – | 33.5 | – | 30.9 | – | 54 | – | 65.2 | – | 65.7
9 | C=CC[PH+](c1ccccc1)c1ccccc1.C=CC[PH+](c1ccccc1)c1ccccc1.[Pt+2].[S-]c1ncccn1.[S-]c1ncccn1 | 11.5 | > 100 | 2.17 | 4.88 | 2.94 | 10.4 | 7.95 | 90.2 | 2.7 | 19.7 | 2.99 | > 100 | 2.18 | 5.91 | 5.35 | > 100 | 4.67 | 18.3 | > 100 | > 100
